Data set [1] can be described thus: In vivo single-dose PK, plasma HPLC-MS/MS. Further details: species or system NSG mice. As to conditions: for AUC(0-inf) / Cmax / Tmax / half-life / Vd/F: NOD-scid IL2Rgamma-null (NSG), mouse, po; for Vd/F: read-out: Vdss/F; for Cl/F: single dose po. On the procedure:
For pharmacokinetic studies, NOD-scid IL2Rgamma-null (NSG) mice were obtained from the In Vivo Therapeutics (IVT) Core at the Indiana University School of Medicine and given a single dose of Buparlisib, WNT974, or the combination at pre-established concentrations of 30 mg/kg and 3 mg/kg respectively. This experiment employed 45 NSG mice (n=15 for each group). Plasma was drawn from 3 mice from each group at 0.5, 1, 2, 6, and 24 hours post dosage. Buparlisib and WNT974 were quantified in the plasma using high-performance liquid chromatography-mass spectrometry (HPLC-MS/MS). Pharmacokinetic (PK) parameters for Buparlisib and WNT974 including area under the curve (AUC), area under the moment curve (AUMC), and half-life (t½) were estimated using non-compartmental methods with Excel and WinNonlin v 2.0 (Certara, Princeton, N.J.). The maximum plasma concentration (Cmax) and time of Cmax (tmax) was calculated from the data. The systemic clearance (Cl/F, where F=bioavailability) of each drug was calculated from the dose and AUC0-∝The apparent volume of distribution (Vdss/F) was estimated from the Cl/F and mean residence time. The single-agent pharmacokinetic parameters were compared to the drug combination parameters to determine whether a drug-drug interaction exists.

Another data set relates to TMD-231 lung metastases. In words: Lung metastases quantification (Ki67), TMD-231 model. It is filed as in vivo, NSG mice. As to conditions: Ki67 positive pixels in lung sections; Buparlisib 30 mg/kg, WNT974 3 mg/kg. On the procedure: For the pharmacodynamic studies, NSG mice were implanted with TMD-231 TNBC cells into the mammary fat pad of 24 NSG mice (6 mice per group: Vehicle, Buparlisib, WNT974, Buparlisib+WNT974). The TMD-231 cell line is a variant of the MDA-MB-231 cell line that metastasizes to the lung. Tumors were allowed to grow for 29 days to an average size of approximately 350 mm^3 prior to dosing. To validate compound-mediated modulation of the PI3K/mTOR and Wnt signaling pathways, mice were dosed once-a-day with vehicle, Buparlisib (30 mg/kg), WNT974 (3 mg/kg), or the combination for 7 days, with intermittent tumor measurements. […] To quantify lung metastases, lungs were extracted, fixed in 10% formalin, and processed in paraffin. Five-micrometer sections were H&E stained, deparaffinized, blocked, and stained using primary anti-human Ki67 antibody (DAKO, Carpinteria, Calif.). The Aperio whole slide digital imaging system was used for imaging (Leica, Wetzlar, Germany). Using the Aperio ScanScope CS, 20× images were taken at scan times ranging from 1.5 to 2.25 minutes. The total nuclear labeling index (Ki67) was generated using the Aperio ImageScope standard positive pixel algorithm. The Image Analysis software was used to calculate the percent of positive pixels (brown staining) in one large cross section from each lung.

The nature of data set [2]: Quantification of drug in resected tumors (PD study). It is filed as in vivo, NSG mice. The conditions noted are these: tumors resected 1 hour and 7 hours after last dose, day 7; HPLC-MS/MS.
Another data set has as its system AXIN2 RNA. The data set can be described thus: Axin2 RNA qPCR on TMD-231 tumors (PD study). It is filed as in vivo, NSG mice. As to conditions: 7 days once-a-day; Buparlisib 30 mg/kg, WNT974 3 mg/kg. On the procedure: (§1) For Western Blot analysis, target modulation was assessed using qPCR for Axin2 (a marker of WNT974), and western blot for Porcupine and Phospho-Akt […] (a marker of Buparlisib activity). qPCR was performed using Taqman assays (Life Technologies). For western blotting, protein was isolated using RIPA buffer and quantified with BCA assay (Thermo Fisher). Protein was run on Bis-Tris gels (Life Technologies) and transferred to PVDF. Primary pAKT-[…] antibody (Cell Signaling Technology, Beverly, Mass.), β-actin (Cell Signaling Technology), and PORCN (Abcam, Cambridge, England) were incubated overnight with subsequent 1 hour incubation with HRP-conjugate secondary antibody. Staining was performed using a chemiluminescent substrate (ThermoFisher). Imaging was performed using an LAS-4000 Luminescent Image Analyzer (Fujifilm, Tokyo, Japan).
In general terms: Real-time PCR tracks product formation cycle by cycle.

The conditions of data set [3]: known; cited from earlier work.
Data set [4] has as its system TNBC patient derived xenograft (PDX) (ID: BR0901). The data set can be described thus: TNBC PDX study, survival. It is filed as in vivo, NSG mice. As to conditions: n=10 per group, once-a-day max 28 days; Buparlisib 30 mg/kg, WNT974 3 mg/kg. On the procedure: NSG mice were trochar implanted in the right hind flank with a passage 1-4, 5 mm^3 TNBC patient derived xenograft (PDX) (ID: BR0901) at The Jackson Laboratory (The Jackson Laboratory, Bar Harbor, Maine). […] 40 TNBC PDX implanted mice were used (10 mice per group: Vehicle, Buparlisib (30 mg/kg), WNT974 (3 mg/kg), and Buparlisib+WNT974). Tumors were grown to an average of 70-150 mm^3 and mice averaged 22.5 grams body weight. Mice were dosed once-a-day for a maximum of 28 days. Tumor measurements were made two times a week. Mice whose tumors reached a size of 1500 mm^3 were euthanized per IACUC protocol.

The next data set concerns tumor growth. The conditions noted are these: recently published data; cited from earlier work.
A further data set concerns the target T1, Porcupine (Homo sapiens, UniProt Q9H237).
T1 sequence (Q9H237 1-461): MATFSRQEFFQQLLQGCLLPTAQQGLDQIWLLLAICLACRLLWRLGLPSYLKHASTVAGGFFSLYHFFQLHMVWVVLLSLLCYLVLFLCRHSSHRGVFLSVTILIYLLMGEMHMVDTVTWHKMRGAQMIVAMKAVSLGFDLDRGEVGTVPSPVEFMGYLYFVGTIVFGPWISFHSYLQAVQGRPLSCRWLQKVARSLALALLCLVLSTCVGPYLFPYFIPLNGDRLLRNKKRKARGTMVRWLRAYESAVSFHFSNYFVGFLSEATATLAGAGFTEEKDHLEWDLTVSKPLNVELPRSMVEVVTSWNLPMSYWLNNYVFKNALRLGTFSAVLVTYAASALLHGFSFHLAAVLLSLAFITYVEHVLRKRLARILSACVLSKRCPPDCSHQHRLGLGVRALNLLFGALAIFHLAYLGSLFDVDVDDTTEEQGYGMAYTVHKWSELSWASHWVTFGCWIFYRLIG
The conditions noted are these: recently published data; cited from earlier work.

For the next data set, the system named is Phospho-AKT. The data set can be described thus: pAKT western blot on TMD-231 tumors (PD study). It is filed as in vivo, NSG mice. The conditions noted are these: 7 days once-a-day; Buparlisib 30 mg/kg, WNT974 3 mg/kg. On the procedure: as §1
(In general: Immunoblotting shows a protein as a band on a membrane.)

The subject of another data set is TMD-231 TNBC cells. In words: Pharmacodynamic study, TMD-231 xenograft tumor volume. It is filed as in vivo, NSG mice. The conditions noted are these: single agent, 7 days once-a-day; Buparlisib 30 mg/kg, WNT974 3 mg/kg. On the procedure: For the pharmacodynamic studies, NSG mice were implanted with TMD-231 TNBC cells into the mammary fat pad of 24 NSG mice (6 mice per group: Vehicle, Buparlisib, WNT974, Buparlisib+WNT974). The TMD-231 cell line is a variant of the MDA-MB-231 cell line that metastasizes to the lung. Tumors were allowed to grow for 29 days to an average size of approximately 350 mm^3 prior to dosing. To validate compound-mediated modulation of the PI3K/mTOR and Wnt signaling pathways, mice were dosed once-a-day with vehicle, Buparlisib (30 mg/kg), WNT974 (3 mg/kg), or the combination for 7 days, with intermittent tumor measurements.

Setting [5] is: drug given alone, Buparlisib 30 mg/Kg, WNT974 3 mg/Kg.
Setting [6] is: measured drug given in combination with the other, Buparlisib 30 mg/Kg + WNT974 3 mg/Kg.

Read-outs that look alike come from different tables or passages of the source.

As for `Cc1cc(-c2ncc(CC(=O)Nc3ccc(-c4cnccn4)cn3)cc2C)ccn1` [WNT974, 2-[5-methyl-6-(2-methylpyridin-4-yl)pyridin-3-yl]-N-(5-pyrazin-2-ylpyridin-2-yl)acetamide], in data set [1] (setting [5]), the total exposure AUC(0-inf) (usually the area under the concentration-time curve extrapolated to infinity) is 636 ng·h/mL; the Cmax – broadly, the highest concentration seen after dosing – is 165 ng/mL; the Tmax – broadly, the time from dosing to the highest level – worked out at 1 h; the half-life (usually the time in which the quantity being followed falls by half) is 2.1 h. In data set [1] (setting [5]), the Vd/F was 0.24 L and the Cl/F turned out to be 0.081 L/h. Also, in [1] (setting [6]), the AUC(0-inf) turned out to be 621 ng·h/mL, the peak concentration (Cmax) worked out at 143 ng/mL, the Tmax was 1 h and the half-life is 3 h. In data set [1] (setting [6]), the Vd/F worked out at 0.4 L and the Cl/F is 0.087 L/h. Also, in the data set with TMD-231 lung metastases, the “lung metastases compared with the control group” value is “small but non-significant decreases”. Also, the “drug concentrations in tumor tissue” value in data set [2] is “reaching the tumor”. In addition, the “Axin2 RNA expression in tumors” value with AXIN2 RNA is “decrease”. Also, the “toxicity / most common side effect in humans” value in data set [3] is “dysgeusia”. The “mice survived to the end of the study” value in [4] came to 0%. The “inhibition of tumor growth in vivo” value in the data set with tumor growth is “significant inhibition”. Also, the “inhibition of its target” value on Porcupine is recorded as “potent inhibition”. In addition, the “Inhibition of Phospho-AKT in tumors” value in the data set on Phospho-AKT is given as “not”. Moreover, the “tumor volume change (in words)” value in the data set with TMD-231 TNBC cells is listed as “grew slightly”.

Source of the values: patent US20160303137A1, “DUAL PI3K AND WNT PATHWAY INHIBITION AS A TREATMENT FOR CANCER” (Indiana University Research and Technology Corporation, priority 2015, published 2016).
